Biological target: T1, LPA1 (Homo sapiens, UniProt Q92633)
T1 construct: ProLink (PK) beta-galactosidase enzyme-fragment tag; host or cells: CHO-K1
Test: LPA1 calcium flux assay (LPA1 functional antagonist assay)
Assay type: cell-based
Conditions: PathHunter CHO-K1 EDG2 β-Arrestin cell line; calcium indicator dye; stimulated with EC80 concentration of LPA; FLIPR Tetra
Protocol: Following overnight culture, cells were loaded with calcium indicator dye from the HitHunter Calcium No WashPLUS Assay kit (Eurofins DiscoverX Corporation, Cat #93-0091) for 45 minutes at 37° C. […] After compound addition, assay plates were equilibrated to room temperature for 30 minutes. […] IC50 values were determined by Chemical and Biological Information System from ChemInnovation Software, Inc. The compounds of this invention were tested for their activity to inhibit LPA1 as determined in an LPA1 functional antagonist assay as described herein.

T1 sequence (Q92633 whole entry, the tested form may be a part): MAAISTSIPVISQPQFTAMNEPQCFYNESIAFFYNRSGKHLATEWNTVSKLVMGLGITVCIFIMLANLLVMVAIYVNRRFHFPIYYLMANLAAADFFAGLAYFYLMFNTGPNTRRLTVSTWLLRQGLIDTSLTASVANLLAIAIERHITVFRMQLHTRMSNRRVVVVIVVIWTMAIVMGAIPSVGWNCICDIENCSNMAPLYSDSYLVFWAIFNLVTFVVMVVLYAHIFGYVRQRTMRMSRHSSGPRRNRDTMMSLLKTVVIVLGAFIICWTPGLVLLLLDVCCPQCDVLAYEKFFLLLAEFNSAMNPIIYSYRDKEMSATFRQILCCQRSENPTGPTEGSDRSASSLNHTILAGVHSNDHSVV

IC50 [nM] | SMILES
< 100 | CCc1nc(-c2nnn(C)c2Cn2cc(CC(C)C)ccc2=O)ccc1N1C[C@@H](CC(=O)O)CC(F)(F)C1 [Example 12, (S)-2-(1-(2-ethyl-6-(5-((5-isobutyl-2-oxopyridin-1(2H)-yl)methyl)-l-methyl-1H-1,2,3-triazol-4-yl)pyridin-3-yl)-5,5-difluoropiperidin-3-y)acetic acid]
< 100 | CCc1nc(-c2nnn(C)c2Cn2cc(CC3CC3)ccc2=O)ccc1N1C[C@@H](CC(=O)O)CC(F)(F)C1 [Example 13, (S)-2-(1-(6-(5-((5-(cyclopropylmethyl)-2-oxopyridin-1(2H)-yl)methyl)-1-methyl-1H-1,2,3-triazol-4-yl)-2-ethylpyridin-3-yl)-5,5-difluoropiperidin-3-yl)acetic acid]
< 100 | CCc1nc(-c2nnn(C)c2Cn2cc(CC3CCC3)ccc2=O)ccc1N1C[C@@H](CC(=O)O)CC(F)(F)C1 [Example 14, (S)-2-(1-(6-(5-((5-(cyclobutylmethyl)-2-oxopyridin-1(2H)-y)methyl)-1-methyl-1H-1,2,3-triazol-4-yl)-2-ethylpyridin-3-yl)-5,5-difluoropiperidin-3-yl)acetic acid]
< 100 | CCc1nc(-c2nnn(C)c2Cn2cc(C3CC3)ccc2=O)ccc1N1C[C@@H](CC(=O)O)CC(F)(F)C1 [Example 15, (S)-2-(1-(6-(5-((5-cyclopropyl-2-oxopyridin-1(2H)-yl)methyl)-1-methyl-1H-1,2,3-triazol-4-yl)-2-ethylpyridin-3-yl)-5,5-difluoropiperidin-3-yl)acetic acid]
< 100 | CCc1nc(-c2nnn(C)c2Cn2cc(C(C)C)ccc2=O)ccc1N1C[C@@H](CC(=O)O)CC(F)(F)C1 [Example 16, (S)-2-(1-(2-ethyl-6-(5-((5-isopropyl-2-oxopyridin-1(2H)-yl)methyl)-1-methyl-1H-1,2,3-triazol-4-yl)pyridin-3-yl)-5,5-difluoropiperidin-3-yl)acetic acid]
< 100 | CCc1nc(-c2nnn(C)c2Cn2cc(C3CCC3)ccc2=O)ccc1N1C[C@@H](CC(=O)O)CC(F)(F)C1 [Example 17, (S)-2-(1-(6-(5-((5-cyclobutyl-2-oxopyridin-1(2H)-yl)methyl)-1-methyl-1H-1,2,3-triazol-4-yl)-2-ethylpyridin-3-yl)-5,5-difluoropiperidin-3-yl)acetic acid]
500 to 5000 | CCc1nc(-c2nnn(C)c2Cn2cc(C3CC3)c(C)cc2=O)ccc1N1C[C@@H](CC(=O)O)CC(F)(F)C1 [Example 18]
> 5000 | CCc1nc(-c2nnn(C)c2Cn2cc(C)c(C3CC3)cc2=O)ccc1N1C[C@@H](CC(=O)O)CC(F)(F)C1 [Example 19, (S)-2-(1-(6-(5-((4-cyclopropyl-5-methyl-2-oxopyridin-1(2H)-yl)methyl)-1-methyl-1H-1,2,3-triazol-4-yl)-2-ethylpyridin-3-yl)-5,5-difluoropiperidin-3-yl)acetic acid]
> 5000 | CCc1nc(-c2nnn(C)c2Cn2ccc(C#CC3CC3)cc2=O)ccc1N1C[C@@H](CC(=O)O)CC(F)(F)C1 [Example 20, (S)-2-(1-(6-(5-((4-(cyclopropylethynyl)-2-oxopyridin-1(2H)-yl)methyl)-1-methyl-1H-1,2,3-triazol-4-yl)-2-ethylpyridin-3-yl)-5,5-difluoropiperidin-3-yl)acetic acid]
500 to 5000 | CCc1nc(-c2nnn(C)c2Cn2cc(C#CC3CC3)ccc2=O)ccc1N1C[C@@H](CC(=O)O)CC(F)(F)C1 [Example 21, (S)-2-(1-(6-(5-((5-(cyclopropylethynyl)-2-oxopyridin-1(2H)-yl)methyl)-1-methyl-1H-1,2,3-triazol-4-yl)-2-ethylpyridin-3-yl)-5,5-difluoropiperidin-3-yl)acetic acid]
100 to 500 | CCCc1ccc(=O)n(Cc2c(-c3ccc(N4CCC[C@H](CC(=O)O)C4)c(CC)n3)nnn2C)c1 [Example 22, (R)-2-(1-(2-ethyl-6-(1-methyl-5-((2-oxo-5-propylpyridin-1(2H)-yl)methyl)-1H-1,2,3-triazol-4-yl)pyridin-3-yl)piperidin-3-yl)acetic acid]
> 5000 | CCCc1ccc(=O)n(Cc2c(-c3ccc(N4CCC[C@@H](CC(=O)O)C4)c(CC)n3)nnn2C)c1 [Example 23, (S)-2-(1-(2-ethyl-6-(1-methyl-5-((2-oxo-5-propylpyridin-1(2H)-yl)methyl)-1H-1,2,3-triazol-4-yl)pyridin-3-yl)piperidin-3-yl)acetic acid]
< 100 | CCc1nc(-c2nnn(C)c2Cn2cc(OC3CC3)ccc2=O)ccc1N1C[C@@H](CC(=O)O)CC(F)(F)C1 [Example 24, (S)-2-(1-(6-(5-((5-cyclopropoxy-2-oxopyridin-1(2H)-yl)methyl)-1-methyl-1H-1,2,3-triazol-4-yl)-2-ethylpyridin-3-yl)-5,5-difluoropiperidin-3-yl)acetic acid]
100 to 500 | CCCOc1ccc(=O)n(Cc2c(-c3ccc(N4C[C@@H](CC(=O)O)CC(F)(F)C4)c(CC)n3)nnn2C)c1 [Example 25, (S)-2-(1-(2-ethyl-6-(1-methyl-5-((2-oxo-5-propoxypyridin-1 (2H)-yl)methyl)-1H-1,2,3-triazol-4-yl)pyridin-3-yl)-5,5-difluoropiperidin-3-yl)acetic acid]
100 to 500 | CCOc1ccc(=O)n(Cc2c(-c3ccc(N4C[C@@H](CC(=O)O)CC(F)(F)C4)c(CC)n3)nnn2C)c1 [Example 26, (S)-2-(1-(6-(5-((5-ethoxy-2-oxopyridin-1(2H)-yl)methyl)-1-methyl-1H-1,2,3-triazol-4-yl)-2-ethylpyridin-3-yl)-5,5-difluoropiperidin-3-yl)acetic acid]
500 to 5000 | CCc1nc(-c2nnn(C)c2Cn2cc(N3CCC3)ccc2=O)ccc1N1C[C@@H](CC(=O)O)CC(F)(F)C1 [Example 27, (S)-2-(1-(6-(5-((5-(azetidin-1-yl)-2-oxopyridin-1(2H)-yl)methyl)-1-methyl-1H-1,2,3-triazol-4-yl)-2-ethylpyridin-3-yl)-5,5-difluoropiperidin-3-yl)acetic acid]
500 to 5000 | CCc1nc(-c2nnn(C)c2Cn2cc(-n3cccn3)ccc2=O)ccc1N1C[C@@H](CC(=O)O)CC(F)(F)C1 [Example 28, (S)-2-(1-(2-ethyl-6-(1-methyl-5-((2-oxo-5-(1H-pyrazol-1-yl)pyridin-1 (2H)-y)methyl)-1H-1,2,3-triazol-4-yl)pyridin-3-yl)-5,5-difluoropiperidin-3-yl)acetic acid]
100 to 500 | CCCc1cn(Cc2c(-c3ccc(N4C[C@@H](CC(=O)O)CC(F)(F)C4)c(CC)n3)nnn2C)c(=O)cn1 [Example 29, (S)-2-(1-(2-ethyl-6-(1-methyl-5-((2-oxo-5-propylpyrazin-1(2H)-yl)methyl)-1H-1,2,3-triazol-4-yl)pyridin-3-yl)-5,5-difluoropiperidin-3-yl)acetic acid]
> 5000 | CCCc1cc(=O)n(Cc2c(-c3ccc(N4C[C@@H](CC(=O)O)CC(F)(F)C4)c(CC)n3)nnn2C)cn1 [Example 31]
500 to 5000 | CCCc1ccnn(Cc2c(-c3ccc(N4C[C@@H](CC(=O)O)CC(F)(F)C4)c(C)n3)nnn2C)c1=O [Example 32, (S)-2-(5,5-difluoro-1-(2-methyl-6-(1-methyl-5-((6-0xo-5-propylpyridazin-1(6H)-yl)methyl)-1H-1,2,3-triazol-4-yl)pyridin-3-yl)piperidin-3-yl)acetic acid]
> 5000 | CCCc1cnn(Cc2c(-c3ccc(N4C[C@@H](CC(=O)O)CC(F)(F)C4)c(C)n3)nnn2C)c(=O)c1 [Example 33, (S)-2-(5,5-difluoro-1-(2-methyl-6-(1-methyl-5-((6-oxo-4-propylpyridazin-1(6H)-yl)methyl)-1H-1,2,3-triazol-4-yl)pyridin-3-yl)piperidin-3-yl)acetic acid]
500 to 5000 | CCCc1ccc(=O)n(Cc2c(-c3ccc(N4C[C@@H](CC(=O)O)CC(F)(F)C4)c(C)n3)nnn2C)n1 [Example 34, (S)-2-(5,5-difluoro-1-(2-methyl-6-(1-methyl-5-((6-oxo-3-propylpyridazin-1(6H)-yl)methyl)-1H-1,2,3-triazol-4-yl)pyridin-3-yl)piperidin-3-yl)acetic acid]
100 to 500 | CCc1nc(-c2nnn(C)c2Cn2nc(CC3CC3)ccc2=O)ccc1N1C[C@@H](CC(=O)O)CC(F)(F)C1 [Example 35, (S)-2-(1-(6-(5-((3-(cyclopropyImethyl)-6-oxopyridazin-1(6H)-yl)methyl)-1-methyl-1H-1,2,3-triazol-4-yl)-2-ethylpyridin-3-yl)-5,5-difluoropiperidin-3-yl)acetic acid]
100 to 500 | CCc1nc(-c2nnn(C)c2Cn2nc(C3CC3)ccc2=O)ccc1N1C[C@@H](CC(=O)O)CC(F)(F)C1 [Example 36, (S)2-(1-(6-(5-((3-cyclopropyl-6-oxopyridazin-1(6H)-yl)methyl)-1-methyl-1H-1,2,3-triazol-4-yl)-2-ethylpyridin-3-yl)-5,5-difluoropiperidin-3-yl)acetic acid]
> 5000 | CCCc1ccc(=O)n(Cc2c(-c3ncc(N4C[C@@H](CC(=O)O)CC(F)(F)C4)c(CC)n3)cnn2C)c1 [Example 37, (S)-2-(1-(4-ethyl-2-(1-methyl-5-((2-oxo-5-propylpyridin-1(2H)-yl)methyl)-1H-pyrazol-4-yl)pyrimidin-5-yl)-5,5-difluoropiperidin-3-yl)acetic acid]
> 5000 | CCCc1cnc(=O)n(Cc2c(-c3ncc(N4C[C@@H](CC(=O)O)CC(F)(F)C4)c(CC)n3)cnn2C)c1 [Example 38, (S)-2-(1-(4-ethyl-2-(1-methyl-5-((2-oxo-5-propylpyrimidin-1(2H)-yl)methyl)-1H-pyrazol-4-yl)pyrimidin-5-yl)-5,5-difluoropiperidin-3-yl)acetic acid]
500 to 5000 | CCc1nc(-c2cnn(C)c2Cn2cc(C3CC3)ccc2=O)ncc1N1C[C@@H](CC(=O)O)CC(F)(F)C1 [Example 39, (S)-2-(1-(2-(5-((5-cyclopropyl-2-oxopyridin-1(2H)-yl)methyl)-1-methyl-1H-pyrazol-4-yl)-4-ethylpyrimidin-5-yl)-5,5-difluoropiperidin-3-yl)acetic acid]

From patent publication US12780800B1, “Triazole-pyridinyl substituted azacyclohexyl acetic acid compounds as LPA receptor antagonists” (Viva Star Biosciences Limited, priority 2021, dated 2022)
